Results published in publication PMC11079024, “Identification of a family of species-selective complex I inhibitors as potential anthelmintics” (Nature Communications, 2024).
“And” between values parts separate entries of the source, which are not always exact repeats. Equal entries are not always repeated. Where two headings read alike, the source gives them in different places.

Target: M. musculus (heart) complex I (Mus musculus, UniProt P03888+Q91WD5+Q9DC70)
Test: biochemical
Format: biochemical
Set-up: Complex I activity, dose-response data: unit not given here
Conditions: for IC50: heart mitochondria
Procedure: Six 8–10-week-old C57Bl/6 female mice (Charles River) were freshly dissected, and their livers and hearts collected into separate 1.5 mL microcentrifuge tubes. Organs were flash-frozen in liquid nitrogen and stored at −80 °C prior to use. The heart of a freshly slaughtered adult cow was obtained from a local abattoir (Peel Sausage Inc.), chopped into ~1-inch cubes and collected into 50 mL falcon tubes. Falcon tubes were flash-frozen in a container of dry ice and stored at −80 °C prior to use. Isolation of mitochondria from all mammalian tissue was carried out following the protocol described above. However, due to size, the initial homogenization of tissue was performed by 15 strokes in a dounce homogenizer (mouse heart) or with several 5 s pulses in small Nutribullet blender (cow heart). All mouse protocols for mouse care and dissection were reviewed and approved by the University of Toronto Animal Care Committee, in accordance with the Canadian Council on Animal Care.
The enzymatic activities of individual ETC complexes (I-IV) were assessed spectrophotometrically in isolated mitochondria using a Varioskan LUX Multimode plate reader (ThermoFisher Scientific). Mitochondrial pellets previously isolated were thawed on ice and resuspended in ice-cold isolation buffer (250 mM sucrose, 10 mM Tris (pH 7.5), 1 mM EDTA). The BCA assay (Walker, 1994) was used to quantify the protein concentration of mitochondria suspensions; solutions were diluted to a concentration of 0.2 mg/mL for use in all assays. For the complex I assay, mitochondria pellets were freeze-thawed on ice three times to increase enzyme accessibility. […] 20 μL mitochondria suspension was then added/mixed with a pipette to initiate the reaction. Immediately following the addition of mitochondria, absorbance was measured (complex I and II: 600 nm; complex III and IV: 550 nm) in 30 s intervals over 15 min. Enzymatic activity was determined in each reaction by plotting absorbance versus time and calculating the slope of the curve during the initial linear phase of the reaction. […] Percent activity of each complex was calculated by dividing the enzyme-specific activity of each well by the enzyme-specific activity of the corresponding solvent controls.
Chemical solutions were prepared in complex I assay buffer composed of 25 mM KPi buffer (pH 7.5), 3 mg/mL bovine serum albumin (BSA), 80 μM NADH, 60 μM decylubiquinone, 160 μM DCIP, 2 μM antimycin A and 2 mM KCN.
For preliminary screens of hit compounds, compounds were screened at 100 μM; data are the average of at least three biological replicates. The complex I and II activity assays were used for additional dose-response experiments. […] For dose responses of benzimidazole analogs, data represent the average of two biological replicates. For all other dose-responses, data represent the average of at least three biological replicates.

[1] = M. musculus (heart) mitochondria, mean of replicates, read-out: percent (%) in vitro complex I activity relative to solvent control
[2] = M. musculus (heart) mitochondria, single replicate, read-out: percent (%) in vitro complex I activity relative to solvent control

Sequence of M. musculus (heart) complex I (Q91WD5 34-463): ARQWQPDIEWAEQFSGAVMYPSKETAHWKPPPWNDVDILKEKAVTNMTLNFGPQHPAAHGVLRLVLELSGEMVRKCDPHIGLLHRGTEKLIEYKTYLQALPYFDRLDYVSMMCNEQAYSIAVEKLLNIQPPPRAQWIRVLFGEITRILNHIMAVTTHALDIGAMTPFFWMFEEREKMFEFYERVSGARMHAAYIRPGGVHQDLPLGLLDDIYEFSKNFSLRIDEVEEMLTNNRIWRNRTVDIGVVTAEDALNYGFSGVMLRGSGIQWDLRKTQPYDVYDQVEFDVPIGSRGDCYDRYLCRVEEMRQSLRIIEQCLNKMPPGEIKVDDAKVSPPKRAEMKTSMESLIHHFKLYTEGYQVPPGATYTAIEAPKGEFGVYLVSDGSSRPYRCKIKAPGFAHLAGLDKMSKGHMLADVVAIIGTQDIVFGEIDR
Sequence of M. musculus (heart) complex I (Q9DC70 36-224): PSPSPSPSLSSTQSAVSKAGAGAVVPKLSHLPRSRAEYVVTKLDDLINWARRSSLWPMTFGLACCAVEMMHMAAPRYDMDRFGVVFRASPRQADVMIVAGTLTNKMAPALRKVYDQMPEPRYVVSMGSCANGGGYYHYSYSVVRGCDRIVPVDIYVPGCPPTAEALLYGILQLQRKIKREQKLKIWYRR
Sequence of M. musculus (heart) complex I (P03888 whole entry): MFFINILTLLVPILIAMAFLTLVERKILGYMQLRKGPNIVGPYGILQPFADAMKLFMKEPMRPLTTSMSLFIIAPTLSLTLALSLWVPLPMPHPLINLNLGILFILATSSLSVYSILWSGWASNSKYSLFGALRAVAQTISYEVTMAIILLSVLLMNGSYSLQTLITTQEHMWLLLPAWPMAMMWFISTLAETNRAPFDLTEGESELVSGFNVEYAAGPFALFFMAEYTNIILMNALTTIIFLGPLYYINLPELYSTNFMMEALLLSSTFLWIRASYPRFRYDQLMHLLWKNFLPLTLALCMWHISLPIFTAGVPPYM

With `COc1cc2c(cc1OC)C(C(C)c1ccc(CC(C)C)cc1)=NCC2` (stereo not drawn) [NPD10504] the activity at 0.0001 µM (M. musculus, dose 0.0001 µM, Mean of replicates, read-out: Complex I activity, dose-response data) was 100%, the “Complex I activity, dose-response data” value (M. musculus, dose 0.0001 µM, individual replicates (Rep)) was 98.111 and 98.124 and 101.101 and the activity at 0.0001 µM (M. musculus, dose 0.0001 µM, individual replicates (Rep), read-out: Complex I activity, dose-response data) was 104%. For the same molecule, the activity at 0.0005 µM (M. musculus, dose 0.0005 µM, Mean of replicates, read-out: Complex I activity, dose-response data) was 102%, the “Complex I activity, dose-response data” value (M. musculus, dose 0.0005 µM, individual replicates (Rep)) was 96.317 and 102.767 and 102.719 and the activity at 0.0005 µM (M. musculus, dose 0.0005 µM, individual replicates (Rep), read-out: Complex I activity, dose-response data) was 108%. For the same molecule, the activity at 0.001 µM (M. musculus, dose 0.001 µM, Mean of replicates, read-out: Complex I activity, dose-response data) was 105%, the “Complex I activity, dose-response data” value (M. musculus, dose 0.001 µM, individual replicates (Rep)) was 99.985 and 104.571 and 105.658 and the activity at 0.001 µM (M. musculus, dose 0.001 µM, individual replicates (Rep), read-out: Complex I activity, dose-response data) was 109%. For the same molecule, the activity at 0.0025 µM (M. musculus, dose 0.0025 µM, Mean of replicates, read-out: Complex I activity, dose-response data) was 106%, the “Complex I activity, dose-response data” value (M. musculus, dose 0.0025 µM, individual replicates (Rep)) was 98.620 and 108.582 and 106.862 and the activity at 0.0025 µM (M. musculus, dose 0.0025 µM, individual replicates (Rep), read-out: Complex I activity, dose-response data) was 111%. For the same molecule, the activity at 0.005 µM (M. musculus, dose 0.005 µM, Mean of replicates, read-out: Complex I activity, dose-response data) was 106%, the “Complex I activity, dose-response data” value (M. musculus, dose 0.005 µM, individual replicates (Rep)) was 97.614 and 105.909 and 105.173 and the activity at 0.005 µM (M. musculus, dose 0.005 µM, individual replicates (Rep), read-out: Complex I activity, dose-response data) was 114%. For the same molecule, the activity at 0.013 µM (M. musculus, dose 0.013 µM, Mean of replicates, read-out: Complex I activity, dose-response data) was 106%, the “Complex I activity, dose-response data” value (M. musculus, dose 0.013 µM, individual replicates (Rep)) was 117.888 and 97.083 and 107.285 and 103.285 and the activity at 0.025 µM (M. musculus, dose 0.025 µM, Mean of replicates, read-out: Complex I activity, dose-response data) was 108%. The “Complex I activity, dose-response data” value (M. musculus, dose 0.025 µM, individual replicates (Rep)) was 106.620 and 105.888 and 103.706, the activity at 0.025 µM (M. musculus, dose 0.025 µM, individual replicates (Rep), read-out: Complex I activity, dose-response data) was 114% and the activity at 0.063 µM (M. musculus, dose 0.063 µM, Mean of replicates, read-out: Complex I activity, dose-response data) was 102%. For the same molecule, the “Complex I activity, dose-response data” value (M. musculus, dose 0.063 µM, individual replicates (Rep)) was 96.239 and 106.202 and 93.573, the activity at 0.063 µM (M. musculus, dose 0.063 µM, individual replicates (Rep), read-out: Complex I activity, dose-response data) was 112% and the activity at 0.125 µM (M. musculus, dose 0.125 µM, Mean of replicates, read-out: Complex I activity, dose-response data) was 100%. The “Complex I activity, dose-response data” value (M. musculus, dose 0.125 µM, individual replicates (Rep)) was 95.373 and 99.771 and 94.821, the activity at 0.125 µM (M. musculus, dose 0.125 µM, individual replicates (Rep), read-out: Complex I activity, dose-response data) was 110% and the activity at 0.313 µM (M. musculus, dose 0.313 µM, Mean of replicates, read-out: Complex I activity, dose-response data) was 200%. The “Complex I activity, dose-response data” value (M. musculus, dose 0.313 µM, individual replicates (Rep)) was 195.373 and 199.771 and 194.821, the activity at 0.313 µM (M. musculus, dose 0.313 µM, individual replicates (Rep), read-out: Complex I activity, dose-response data) was 210% and the activity at 0.625 µM (M. musculus, dose 0.625 µM, Mean of replicates, read-out: Complex I activity, dose-response data) was 300%. The “Complex I activity, dose-response data” value (M. musculus, dose 0.625 µM, individual replicates (Rep)) was 295.373 and 299.771 and 294.821, the activity at 0.625 µM (M. musculus, dose 0.625 µM, individual replicates (Rep), read-out: Complex I activity, dose-response data) was 310% and the activity at 1.5 µM (M. musculus, dose 1.5 µM, Mean of replicates, read-out: Complex I activity, dose-response data) was 400%. The “Complex I activity, dose-response data” value (M. musculus, dose 1.5 µM, individual replicates (Rep)) was 395.373 and 399.771 and 394.821, the activity at 1.5 µM (M. musculus, dose 1.5 µM, individual replicates (Rep), read-out: Complex I activity, dose-response data) was 410% and the activity at 3 µM (M. musculus, dose 3 µM, Mean of replicates, read-out: Complex I activity, dose-response data) was 75.9%. The “Complex I activity, dose-response data” value (M. musculus, dose 3 µM, individual replicates (Rep)) was 70.628 and 77.319 and 76.050, the activity at 3 µM (M. musculus, dose 3 µM, individual replicates (Rep), read-out: Complex I activity, dose-response data) was 79.7% and the activity at 15 µM (M. musculus, dose 15 µM, Mean of replicates, read-out: Complex I activity, dose-response data) was 32.6%. For the same molecule, the “Complex I activity, dose-response data” value (M. musculus, dose 15 µM, individual replicates (Rep)) was 30.650 and 32.968 and 29.935, the activity at 15 µM (M. musculus, dose 15 µM, individual replicates (Rep), read-out: Complex I activity, dose-response data) was 37% and the activity at 37.5 µM (M. musculus, dose 37.5 µM, Mean of replicates, read-out: Complex I activity, dose-response data) was 10.6%. For the same molecule, the “Complex I activity, dose-response data” value (M. musculus, dose 37.5 µM, individual replicates (Rep)) was 11.252 and 10.388 and 9.191, the activity at 37.5 µM (M. musculus, dose 37.5 µM, individual replicates (Rep), read-out: Complex I activity, dose-response data) was 11.7% and the activity at 75 µM (M. musculus, dose 75 µM, Mean of replicates, read-out: Complex I activity, dose-response data) was 3.69%. The “Complex I activity, dose-response data” value (M. musculus, dose 75 µM, individual replicates (Rep)) was 3.180 and 4.662 and 2.397, the activity at 75 µM (M. musculus, dose 75 µM, individual replicates (Rep), read-out: Complex I activity, dose-response data) was 4.5% and the IC50 was 9.52 µM.

Molecule `COc1ccc(Cc2nccc3cc(OC)c(OC)cc23)cc1OC` [Papaverine, reference compound] has a remaining activity at 0.125 µM [1] of 92.5%, a remaining activity at 0.125 µM [2] of 91.5% and a remaining activity at 0.313 µM [1] of 89.9%. For the same molecule, the remaining activity at 0.313 µM [2] was 89.5%, the remaining activity at 0.625 µM [1] was 89.4% and the remaining activity at 0.625 µM [2] was 91.6%. For the same molecule, the remaining activity at 1.5 µM [1] was 78.4%, the remaining activity at 1.5 µM [2] was 77.9% and the remaining activity at 3 µM [1] was 63.1%. For the same molecule, the remaining activity at 3 µM [2] was 62.6%, the remaining activity at 15 µM [1] was 14.4% and the remaining activity at 15 µM [2] was 15.3%. For the same molecule, the remaining activity at 37.5 µM (37.5 µM, M. musculus (heart) mitochondria, mean of replicates, read-out: percent (%) in vitro complex I activity relative to solvent control) was 4.29%, the remaining activity at 75 µM (75 µM, M. musculus (heart) mitochondria, mean of replicates, read-out: percent (%) in vitro complex I activity relative to solvent control) was 1.37% and the IC50 was 4.58 µM.
